Measured values: ChEMBL document CHEMBL1123587, “Nucleosides. 139. Synthesis and anticytomegalovirus and antiherpes simplex virus activity of 5'-modified analogues of 2'-fluoroarabinosylpyrimidine nucleosides” (1987)

What was measured:
Assay type in all cases: functional
Human alphaherpesvirus 1 [1] = assay: Effective concentration required to inhibit replication of strain F of HSV-1 by 90%
Human alphaherpesvirus 2 [2] = assay: Effective concentration required to inhibit replication of strain G of HSV-2 by 90%
Human alphaherpesvirus 1 [3] = assay: Effective concentration required to inhibit replication of strain F of HSV-1 by 50%; conditions: read-out: ED50 (the source's name)
Vero = assay: Compound was evaluated for cytotoxicity in rapidly dividing Vero cells; conditions: Chlorocebus sabaeus, read-out: ID50 (the source's name)
Human alphaherpesvirus 2 [4] = assay: Effective concentration required to inhibit replication of strain G of HSV-2 by 50%; conditions: read-out: ED50 (the source's name)

EC50 (Human alphaherpesvirus 1 [3]) [µM] | EC50 (Human alphaherpesvirus 2 [4]) [µM] | SMILES | ED90 (Human alphaherpesvirus 1 [1]) [µM] | ED90 (Human alphaherpesvirus 2 [2]) [µM] | IC50 (Vero) [µM]
108 | > 200 | NCC1O[C@@H](n2cc(I)c(=O)[nH]c2=O)[C@H](F)[C@H]1O (stereo not given in full) | >200 | >200 | > 200
> 400 | > 400 | CC1O[C@@H](n2cc(I)c(N)nc2=O)[C@H](F)[C@H]1O (stereo not given in full) | >400 | >400 | > 400
216 | > 200 | Nc1nc(=O)n([C@@H]2OC(CS)[C@H](O)[C@H]2F)cc1I (stereo not given in full) | 444 | >200 | 337
31.1 | 173 | Cc1cn([C@@H]2OC(C)[C@H](O)[C@H]2F)c(=O)[nH]c1=O (stereo not given in full) | 298 | 493 | 214
202 | > 400 | NCC1O[C@@H](n2cc(I)c(N)nc2=O)[C@H](F)[C@H]1O (stereo not given in full) | 480 | >400 | > 400
> 200 | > 200 | Cc1cn([C@@H]2OC(CS)[C@H](O)[C@H]2F)c(=O)[nH]c1=O (stereo not given in full) | >200 | >200 | 314
220 | 135 | CC1O[C@@H](n2cc(I)c(=O)[nH]c2=O)[C@H](F)[C@H]1O (stereo not given in full) | 384 | 290 | > 400
346 | 224 | CC1O[C@@H](n2ccc(=O)[nH]c2=O)[C@H](F)[C@H]1O (stereo not given in full) | 538 | 379 | 333
0.78 | 5.6 | Cc1cn([C@@H]2OC(CN)[C@H](O)[C@H]2F)c(=O)[nH]c1=O (stereo not given in full) | 3 | 14 | 6.7
13.3 | 17.1 | CC1O[C@@H](n2ccc(N)nc2=O)[C@H](F)[C@H]1O (stereo not given in full) | 35.9 | 45.5 | 225
0.023 | 0.03 | Nc1nc(=O)n([C@@H]2O[C@H](CO)C(O)C2F)cc1I (single isomer, unassigned) [FIACITABINE] | 0.048 | 0.08 | 21.7
0.012 | 0.01 | O=c1[nH]c(=O)n([C@@H]2O[C@H](CO)C(O)C2F)cc1I (single isomer, unassigned) [FIALURIDINE] | 0.041 | 0.045 | 10.3

SMILES | EC50 (Human alphaherpesvirus 1 [3]) [µM] | EC50 (Human alphaherpesvirus 2 [4]) [µM] | ED90 (Human alphaherpesvirus 1 [1]) [µM] | ED90 (Human alphaherpesvirus 2 [2]) [µM] | IC50 (Vero) [µM]
Cc1cn([C@@H]2O[C@H](CO)C(O)C2F)c(=O)[nH]c1=O (single isomer, unassigned) [5-METHYL-2'-FLUOROARAURACIL] | 0.018 | 0.023 | 0.047 | 0.09 | 2.8
